SMILES strings stand for the structures.

The inhibition is how much of the control response was suppressed. A lower inhibition goes with little suppression. What is called IC50 is the midpoint of a concentration-inhibition curve. Higher therefore signals weaker potency in that assay.

For assay [1], the target named is T1, DNA topoisomerase 2-alpha (Homo sapiens, UniProt P11388). Nature of the assay: Inhibition of ATPase activity of human topoisomerase 2 alpha at 10 uM.
Assay [2] addresses T1, DNA topoisomerase 2-alpha. Description: Inhibition of ATPase activity of human topoisomerase 2 alpha.

T1 sequence (P11388 whole entry): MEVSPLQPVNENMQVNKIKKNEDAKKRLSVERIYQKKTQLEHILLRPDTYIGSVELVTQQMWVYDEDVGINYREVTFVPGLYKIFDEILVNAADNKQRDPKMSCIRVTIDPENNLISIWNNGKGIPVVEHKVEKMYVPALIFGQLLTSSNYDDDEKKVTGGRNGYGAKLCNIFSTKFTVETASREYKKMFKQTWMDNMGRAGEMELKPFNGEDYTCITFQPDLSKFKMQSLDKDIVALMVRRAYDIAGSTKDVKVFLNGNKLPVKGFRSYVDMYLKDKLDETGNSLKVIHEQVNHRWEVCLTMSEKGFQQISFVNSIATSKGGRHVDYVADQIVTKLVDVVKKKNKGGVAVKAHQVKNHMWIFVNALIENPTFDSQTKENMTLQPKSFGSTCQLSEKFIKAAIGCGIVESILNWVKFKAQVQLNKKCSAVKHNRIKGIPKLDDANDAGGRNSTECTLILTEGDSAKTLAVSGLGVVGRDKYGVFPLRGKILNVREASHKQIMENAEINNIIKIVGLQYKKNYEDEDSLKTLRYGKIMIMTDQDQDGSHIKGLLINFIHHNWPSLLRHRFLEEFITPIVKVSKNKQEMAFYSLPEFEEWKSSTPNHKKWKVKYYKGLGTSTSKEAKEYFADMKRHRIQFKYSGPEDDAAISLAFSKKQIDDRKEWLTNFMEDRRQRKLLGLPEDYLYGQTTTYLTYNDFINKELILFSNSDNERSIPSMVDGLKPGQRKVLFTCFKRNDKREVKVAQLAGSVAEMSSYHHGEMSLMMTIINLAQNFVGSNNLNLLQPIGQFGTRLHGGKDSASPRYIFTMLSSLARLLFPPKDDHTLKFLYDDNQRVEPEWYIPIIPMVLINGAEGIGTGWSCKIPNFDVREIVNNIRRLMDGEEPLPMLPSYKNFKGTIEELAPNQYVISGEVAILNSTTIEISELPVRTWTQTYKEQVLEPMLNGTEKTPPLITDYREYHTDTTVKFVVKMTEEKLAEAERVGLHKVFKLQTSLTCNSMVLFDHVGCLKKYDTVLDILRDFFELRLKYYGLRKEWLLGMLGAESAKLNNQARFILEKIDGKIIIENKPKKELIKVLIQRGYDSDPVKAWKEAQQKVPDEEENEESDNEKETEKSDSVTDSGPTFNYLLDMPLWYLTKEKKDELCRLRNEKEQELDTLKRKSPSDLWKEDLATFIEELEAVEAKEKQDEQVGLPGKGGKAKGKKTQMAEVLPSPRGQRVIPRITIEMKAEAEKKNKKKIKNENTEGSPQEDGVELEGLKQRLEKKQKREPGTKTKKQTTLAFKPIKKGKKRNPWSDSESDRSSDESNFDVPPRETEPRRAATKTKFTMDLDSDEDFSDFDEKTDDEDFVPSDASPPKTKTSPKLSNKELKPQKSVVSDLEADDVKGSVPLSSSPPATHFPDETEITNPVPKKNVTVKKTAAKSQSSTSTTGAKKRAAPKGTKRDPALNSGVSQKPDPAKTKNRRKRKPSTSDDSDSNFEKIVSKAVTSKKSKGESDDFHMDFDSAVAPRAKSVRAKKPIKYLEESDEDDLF

Consider `Cn1cnc2c(NC(C)(C)C)nc(Nc3ccc4ncsc4c3)nc21`, for which the inhibition in assay [1] was determined as 7%.
In assay [2], `CC(C)(C)Nc1nc(Nc2ccc3ncsc3c2)nc2[nH]cnc12` registered an IC50 of 1700 nM.
